The experiment deals with murine P388 lymphocytic leukemia (PS) cell line. Nature of the experiment: murine P388 lymphocytic leukemia (PS system) cell line growth inhibition, standard National Cancer Institute protocol. It is filed as cell-based.

Converted amounts (≈) assume the structure as drawn.

Take `O=C1CCc2ccc(O)c(c2)Oc2ccc(cc2)/C=C\CO1` [Combretastatin D-2]: under “murine P388 lymphocytic leukemia (PS system) cell line”, the “PS cell line activity ED50” value was determined as 5.2 mg/L. For the compound `O=C1CCc2ccc(O)c(c2)Oc2ccc(cc2)[C@@H]2O[C@@H]2CO1` (relative stereo) [Combretastatin D-1], the IC50 (Mus musculus, P388, murine P388 lymphocytic leukemia (PS system) cell line, read-out: PS cell line activity ED50) is 3.3 mg/L (≈ 10.6 µM).

These data come from US4940726A, “Cell growth inhibitory macrocyclic lactones denominated Combretastatin D-1 and Combretastatin D-2” (Arizona Board of Regents, priority 1989, dated 1990).
